According to US8575091B1, “Amylin analogues and pharmaceutical compositions thereof” (Novo Nordisk A/S, priority 2012, dated 2013):
Numbered stars: 1 amine (or outer) side, 2 acyl side, 3 side chain; on linkers, the order of the positions; unused ones are H or OH. Bridge positions count the residues as written; N and C are the ends. Side chains are listed from the residue outwards. Peptide text beside a SMILES is read from it. * marks the point of attachment. C20 diacid = O=C(O)CCCCCCCCCCCCCCCCCCC(=O)*; γGlu = O=C(O)[C@H](CCC(=O)[*:2])N[*:1]

Molecular target: T1, human amylin receptor (amylin 3(a) receptor: human calcitonin receptor + RAMP-3) (Homo sapiens, UniProt O60896+P30988)
T1 construct: expressed in transfected cells
T1 sequence (P30988 25-474): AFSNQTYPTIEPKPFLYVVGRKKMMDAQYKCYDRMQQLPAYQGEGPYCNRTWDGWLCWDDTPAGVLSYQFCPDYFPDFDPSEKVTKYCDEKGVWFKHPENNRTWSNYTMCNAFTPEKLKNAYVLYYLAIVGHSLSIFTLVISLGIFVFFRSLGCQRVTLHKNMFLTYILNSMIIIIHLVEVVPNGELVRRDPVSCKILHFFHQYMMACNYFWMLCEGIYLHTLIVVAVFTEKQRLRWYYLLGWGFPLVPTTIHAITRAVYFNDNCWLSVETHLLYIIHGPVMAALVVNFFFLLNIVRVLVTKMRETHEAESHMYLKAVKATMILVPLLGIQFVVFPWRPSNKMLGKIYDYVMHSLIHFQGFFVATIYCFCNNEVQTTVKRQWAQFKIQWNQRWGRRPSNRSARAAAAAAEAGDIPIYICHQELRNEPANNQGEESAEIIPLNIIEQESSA
T1 sequence (O60896 24-148 partner): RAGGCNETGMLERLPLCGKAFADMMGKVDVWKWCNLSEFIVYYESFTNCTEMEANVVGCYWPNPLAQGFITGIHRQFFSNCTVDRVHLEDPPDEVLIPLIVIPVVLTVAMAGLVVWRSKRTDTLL
Assay: Assay (II)a functional assay, human amylin receptor (CRE luciferase, BHK cells)
Assay type: cell-based

[1] = Table 6, human functional selectivity (hCTR EC50 / hAmylin-R EC50)
[2] = Table 6a, human functional selectivity (hCTR EC50 / hAmylin-R EC50), at least 5
[3] = Table 6j, hCTR funct. EC50 / hAmylin-R funct. EC50
[4] = Table 6k, hCTR funct. EC50 / hAmylin-R funct. EC50

| SMILES | Ratio hCT/hAmylin funct. [1] | Ratio hCT/hAmylin funct. [2] | Ratio hCT/hAmylin funct. (hCTR funct. EC50 divided by hAmylin-R funct. EC50) | Ratio hCT/hAmylin funct. (Table 6i, hCTR funct. EC50 / hAmylin-R funct. EC50) | Ratio hCT/hAmylin funct. [3] | Ratio hCT/hAmylin funct. [4] |
| --- | --- | --- | --- | --- | --- | --- |
| CC(C)C[C@H](NC(=O)[C@H](CCCNC(=N)N)NC(=O)[C@H](CCC(N)=O)NC(=O)[C@@H](NC(=O)[C@H](C)NC(=O)[C@@H]1CSSC[C@H](NC(=O)[C@@H](N)CCCCNC(=O)CC[C@H](NC(=O)CC[C@H](NC(=O)CCCCCCCCCCCCCCCCCCC(=O)O)C(=O)O)C(=O)O)C(=O)N[C@@H](CC(N)=O)C(=O)N[C@@H]([C@@H](C)O)C(=O)N[C@@H](C)C(=O)N[C@@H]([C@@H](C)O)C(=O)N1)[C@@H](C)O)C(=O)N[C@@H](C)C(=O)N[C@@H](CC(=O)O)C(=O)N[C@@H](Cc1ccccc1)C(=O)N[C@@H](CC(C)C)C(=O)N[C@@H](CCCNC(=N)N)C(=O)N[C@@H](Cc1c[nH]cn1)C(=O)N[C@@H](CO)C(=O)N[C@@H](CO)C(=O)N1CCC[C@H]1C(=O)N[C@@H](CC(N)=O)C(=O)N[C@@H](Cc1ccccc1)C(=O)NCC(=O)N[C@@H](C)C(=O)N1CCC[C@H]1C(=O)N[C@@H](CC(C)C)C(=O)N[C@@H](CO)C(=O)N[C@@H](CO)C(=O)N[C@H](C(=O)N[C@@H](CC(N)=O)C(=O)N[C@H](C(=O)NCC(=O)N[C@@H](CO)C(=O)N[C@@H](CC(=O)O)C(=O)N[C@H](C(=O)N[C@@H](Cc1ccc(O)cc1)C(N)=O)[C@@H](C)O)C(C)C)[C@@H](C)O [Example 1] (H-K([γGlu-γGlu-C20 diacid])CNTATCATQRLADFLRHSSPNFGAPLSSTNVGSDTY-NH2; disulfide 2-7; N-terminus assumed) | 12.0 | 12.0 | 12.0 |  |  |  |
| CC[C@H](C)[C@H](NC(=O)[C@H](C)NC(=O)CNC(=O)[C@H](Cc1ccccc1)NC(=O)[C@H](CC(N)=O)NC(=O)[C@@H]1CCCN1C(=O)[C@H](CO)NC(=O)[C@H](CO)NC(=O)[C@H](Cc1c[nH]cn1)NC(=O)[C@H](CCCNC(=N)N)NC(=O)[C@H](CC(C)C)NC(=O)[C@H](Cc1ccccc1)NC(=O)[C@H](CCC(=O)O)NC(=O)[C@H](C)NC(=O)[C@H](CC(C)C)NC(=O)[C@H](CCCNC(=N)N)NC(=O)[C@H](CCC(N)=O)NC(=O)[C@@H](NC(=O)[C@H](C)NC(=O)[C@@H]1CSSC[C@H](NC(=O)[C@H](CCCCN)NC(=O)CC[C@H](NC(=O)CCCCCCCCCCCCCCCCCCC(=O)O)C(=O)O)C(=O)N[C@@H](CC(N)=O)C(=O)N[C@@H]([C@@H](C)O)C(=O)N[C@@H](C)C(=O)N[C@@H]([C@@H](C)O)C(=O)N1)[C@@H](C)O)C(=O)N1CCC[C@H]1C(=O)N[C@@H](CO)C(=O)N[C@@H](CO)C(=O)N[C@H](C(=O)N[C@@H](CC(N)=O)C(=O)N[C@H](C(=O)NCC(=O)N[C@@H](Cc1c[nH]cn1)C(=O)N[C@@H](CC(N)=O)C(=O)N[C@H](C(=O)N[C@@H](Cc1ccc(O)cc1)C(N)=O)[C@@H](C)O)C(C)C)[C@@H](C)O [Example 17] ({C20 diacid-γGlu}-KCNTATCATQRLAEFLRHSSPNFGAIPSSTNVGHNTY-NH2; disulfide 2-7) | 8.8 | 8.8 |  | 8.8 | 8.8 | 8.8 |
| CC[C@H](C)[C@H](NC(=O)[C@H](C)NC(=O)CNC(=O)[C@H](Cc1ccccc1)NC(=O)[C@H](CC(N)=O)NC(=O)[C@@H]1CCCN1C(=O)[C@H](CO)NC(=O)[C@H](CO)NC(=O)[C@H](Cc1c[nH]cn1)NC(=O)[C@H](CCCNC(=N)N)NC(=O)[C@H](CC(C)C)NC(=O)[C@H](Cc1ccccc1)NC(=O)[C@H](CC(N)=O)NC(=O)[C@H](C)NC(=O)[C@H](CC(C)C)NC(=O)[C@H](CCCNC(=N)N)NC(=O)[C@H](CCC(N)=O)NC(=O)[C@@H](NC(=O)[C@H](C)NC(=O)[C@@H]1CSSC[C@H](NC(=O)[C@H](CCCCN)NC(=O)CC[C@H](NC(=O)CCCCCCCCCCCCCCCCCCC(=O)O)C(=O)O)C(=O)N[C@@H](CC(N)=O)C(=O)N[C@@H]([C@@H](C)O)C(=O)N[C@@H](C)C(=O)N[C@@H]([C@@H](C)O)C(=O)N1)[C@@H](C)O)C(=O)N1CCC[C@H]1C(=O)N[C@@H](CO)C(=O)N[C@@H](CO)C(=O)N[C@H](C(=O)N1CCC[C@H]1C(=O)N[C@H](C(=O)NCC(=O)N[C@@H](CO)C(=O)N[C@@H](CCC(=O)O)C(=O)N[C@H](C(=O)N[C@@H](Cc1ccc(O)cc1)C(N)=O)[C@@H](C)O)C(C)C)[C@@H](C)O [Example 28] ({C20 diacid-γGlu}-KCNTATCATQRLANFLRHSSPNFGAIPSSTPVGSETY-NH2; disulfide 2-7) | 9.2 | 9.2 |  |  | 9.2 | 9.2 |
| CC[C@H](C)[C@H](NC(=O)[C@H](C)NC(=O)CNC(=O)[C@H](Cc1ccccc1)NC(=O)[C@H](CC(N)=O)NC(=O)[C@@H]1CCCN1C(=O)[C@H](CO)NC(=O)[C@H](CO)NC(=O)[C@H](Cc1c[nH]cn1)NC(=O)[C@H](CCCNC(=N)N)NC(=O)[C@H](CC(C)C)NC(=O)[C@H](Cc1ccccc1)NC(=O)[C@H](CC(N)=O)NC(=O)[C@H](C)NC(=O)[C@H](CC(C)C)NC(=O)[C@H](CCCNC(=N)N)NC(=O)[C@H](CCC(N)=O)NC(=O)[C@@H](NC(=O)[C@H](C)NC(=O)[C@@H]1CSSC[C@H](NC(=O)[C@@H](N)CCCCNC(=O)CC[C@H](NC(=O)CCCCCCCCCCCCCCCCCCC(=O)O)C(=O)O)C(=O)N[C@@H](CC(N)=O)C(=O)N[C@@H]([C@@H](C)O)C(=O)N[C@@H](C)C(=O)N[C@@H]([C@@H](C)O)C(=O)N1)[C@@H](C)O)C(=O)N1CCC[C@H]1C(=O)N[C@@H](CO)C(=O)N[C@@H](CO)C(=O)N[C@H](C(=O)N[C@@H](CC(N)=O)C(=O)N[C@H](C(=O)NCC(=O)N[C@@H](CO)C(=O)N[C@@H](CCCCN)C(=O)N[C@H](C(=O)N[C@@H](Cc1ccc(O)cc1)C(N)=O)[C@@H](C)O)C(C)C)[C@@H](C)O [Example 35] (H-K([γGlu-C20 diacid])CNTATCATQRLANFLRHSSPNFGAIPSSTNVGSKTY-NH2; disulfide 2-7; N-terminus assumed) | 15.0 | 15.0 |  |  | 15.0 | 15.0 |
| CC[C@H](C)[C@H](NC(=O)[C@H](C)NC(=O)CNC(=O)[C@H](Cc1ccccc1)NC(=O)[C@H](CC(N)=O)NC(=O)[C@@H]1CCCN1C(=O)[C@H](CO)NC(=O)[C@H](CO)NC(=O)[C@H](Cc1c[nH]cn1)NC(=O)[C@H](CCCNC(=N)N)NC(=O)[C@H](CC(C)C)NC(=O)[C@H](Cc1ccccc1)NC(=O)[C@H](CC(N)=O)NC(=O)[C@H](C)NC(=O)[C@H](CC(C)C)NC(=O)[C@H](CCCNC(=N)N)NC(=O)[C@H](CCC(N)=O)NC(=O)[C@@H](NC(=O)[C@H](C)NC(=O)[C@@H]1CSSC[C@H](NC(=O)[C@@H](N)CCCCNC(=O)COCCOCCNC(=O)CCCCCCCCCCCCCCCCCCC(=O)O)C(=O)N[C@@H](CC(N)=O)C(=O)N[C@@H]([C@@H](C)O)C(=O)N[C@@H](C)C(=O)N[C@@H]([C@@H](C)O)C(=O)N1)[C@@H](C)O)C(=O)N1CCC[C@H]1C(=O)N[C@@H](CO)C(=O)N[C@@H](CO)C(=O)N[C@H](C(=O)N[C@@H](CC(N)=O)C(=O)N[C@H](C(=O)NCC(=O)N[C@@H](CO)C(=O)N[C@@H](CC(N)=O)C(=O)N[C@H](C(=O)N[C@@H](Cc1ccc(O)cc1)C(N)=O)[C@@H](C)O)C(C)C)[C@@H](C)O [Example 43] | 6.5 | 6.5 |  |  | 6.5 | 6.5 |
| CC[C@H](C)[C@H](NC(=O)[C@H](C)NC(=O)CNC(=O)[C@H](Cc1ccccc1)NC(=O)[C@H](CC(N)=O)NC(=O)[C@@H]1CCCN1C(=O)[C@H](CO)NC(=O)[C@H](CO)NC(=O)[C@H](Cc1c[nH]cn1)NC(=O)[C@H](CCCNC(=N)N)NC(=O)[C@H](CC(C)C)NC(=O)[C@H](Cc1ccccc1)NC(=O)[C@H](CC(N)=O)NC(=O)[C@H](C)NC(=O)[C@H](CC(C)C)NC(=O)[C@H](CCCNC(=N)N)NC(=O)[C@H](CCC(N)=O)NC(=O)[C@@H](NC(=O)[C@H](C)NC(=O)[C@@H]1CSSC[C@H](NC(=O)[C@@H](N)CCCCNC(=O)CC[C@H](NC(=O)CCCCCCCCCCCCCCCCCCC(=O)O)C(=O)O)C(=O)N[C@@H](CC(N)=O)C(=O)N[C@@H]([C@@H](C)O)C(=O)N[C@@H](C)C(=O)N[C@@H]([C@@H](C)O)C(=O)N1)[C@@H](C)O)C(=O)N1CCC[C@H]1C(=O)N[C@@H](CO)C(=O)N[C@@H](CO)C(=O)N[C@H](C(=O)N[C@@H](CC(N)=O)C(=O)N[C@H](C(=O)NCC(=O)N[C@@H](CO)C(=O)N[C@@H](CC(N)=O)C(=O)N[C@H](C(=O)N[C@@H](Cc1ccc(O)cc1)C(N)=O)[C@@H](C)O)C(C)C)[C@@H](C)O [Example 48] | 17.0 | 17.0 |  |  | 17.0 | 17.0 |
